Results taken from PubChem BioAssay AID248 (DTP/NCI, 2004).
Several values for one entry are separate records, joined by “and”; a condition that tells them apart may be missing. Equal entries are not always repeated. Toxic doses and inconclusive results are not listed. Rule as the data show it: active = T/C of 150% or more; inactive = T/C below 125%.

System: L1210 leukemia ip in BDF1 mice, survival T/C
Assay: NCI In Vivo Anticancer Drug Screen. Data for tumor model L1210 Leukemia (intraperitoneal) in B6D2F1 (BDF1) mice
Settings: endpoint: mean survival time, higher = longer survival
Method in brief: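 Tumor was transplanted into mice, which were then dosed with test compound or vehicle alone. Survival was recorded for each group, and the treated figure was expressed relative to the control figure.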

[1] = dose: 100.0 mg/kg/injection, schedule: Q04DX003 (ip), vehicle: saline with Tween-80
[2] = dose: 200.0 mg/kg/injection, schedule: Q04DX003 (ip), vehicle: saline with Tween-80
[3] = dose: 100.0 mg/kg/injection, schedule: Q01DX009 (ip), vehicle: Klucel (hydroxypropylcellulose) (HPC)
[4] = dose: 100.0 mg/kg/injection, schedule: Q04DX003 (ip), vehicle: Klucel (hydroxypropylcellulose) (HPC)
[5] = dose: 200.0 mg/kg/injection, schedule: Q01DX009 (ip), vehicle: Klucel (hydroxypropylcellulose) (HPC)
[6] = dose: 200.0 mg/kg/injection, schedule: Q04DX003 (ip), vehicle: Klucel (hydroxypropylcellulose) (HPC)
[7] = dose: 25.0 mg/kg/injection, schedule: Q01DX009 (ip), vehicle: Klucel (hydroxypropylcellulose) (HPC)
[8] = dose: 6.25 mg/kg/injection, schedule: Q01DX009 (ip), vehicle: Klucel (hydroxypropylcellulose) (HPC)

Measured: T/C

O=[N+]([O-])/C=C/c1ccccc1Cl
inactive: dose: 5.0 mg/kg/injection, schedule: Q01DX009 (ip), vehicle: other 98 % of control | dose: 6.25 mg/kg/injection, schedule: Q01DX009 (ip), vehicle: saline with Tween-80 100 % of control | dose: 10.0 mg/kg/injection, schedule: Q01DX009 (ip), vehicle: other 110 % of control | dose: 12.5 mg/kg/injection, schedule: Q01DX009 (ip), vehicle: saline with Tween-80 95 % of control | dose: 15.0 mg/kg/injection, schedule: Q04DX003 (ip), vehicle: other 114 % of control | dose: 20.0 mg/kg/injection, schedule: Q01DX009 (ip), vehicle: other 100 % of control | dose: 25.0 mg/kg/injection, schedule: Q01DX009 (ip), vehicle: saline with Tween-80 101 % of control | dose: 30.0 mg/kg/injection, schedule: Q04DX003 (ip), vehicle: other 104 % of control | dose: 37.5 mg/kg/injection, schedule: Q01DX009 (sc), vehicle: olive oil, sesame oil, peanut oil 94 % of control | dose: 37.5 mg/kg/injection, schedule: Q04DX003 (ip), vehicle: Klucel (hydroxypropylcellulose) (HPC) 101 % of control | dose: 50.0 mg/kg/injection, schedule: Q01DX009 (ip), vehicle: saline with Tween-80 96 % of control | dose: 60.0 mg/kg/injection, schedule: Q04DX003 (ip), vehicle: other 108 % of control | dose: 75.0 mg/kg/injection, schedule: Q01DX001 (ip), vehicle: saline 92 % of control | dose: 75.0 mg/kg/injection, schedule: Q01DX009 (sc), vehicle: olive oil, sesame oil, peanut oil 94 % of control | dose: 75.0 mg/kg/injection, schedule: Q04DX003 (ip), vehicle: Klucel (hydroxypropylcellulose) (HPC) 90 % of control | dose: 150.0 mg/kg/injection, schedule: Q04DX003 (ip), vehicle: Klucel (hydroxypropylcellulose) (HPC) 90 % of control

Clc1cccc2c(Cl)nccc12
inactive: [1] 100 % of control | [2] 94 % of control | dose: 400.0 mg/kg/injection, schedule: Q04DX003 (ip), vehicle: saline with Tween-80 96 % of control

CC(C)CCNCC(C)OC(=O)c1ccc([N+](=O)[O-])cc1 (stereo not given)
inactive: dose: 75.0 mg/kg/injection, schedule: Q01DX001 (ip), vehicle: other 98 % of control | dose: 150.0 mg/kg/injection, schedule: Q01DX001 (ip), vehicle: other 106 % of control | dose: 300.0 mg/kg/injection, schedule: Q01DX001 (ip), vehicle: other 95 % of control

CN(C)c1ccc(C=O)cc1Br
inactive: [3] 98 % of control | [4] 100 % of control | [5] 96 % of control | [6] 103 % of control | dose: 400.0 mg/kg/injection, schedule: Q01DX009 (ip), vehicle: Klucel (hydroxypropylcellulose) (HPC) 96 % of control | dose: 400.0 mg/kg/injection, schedule: Q04DX003 (ip), vehicle: Klucel (hydroxypropylcellulose) (HPC) 101 % of control

CC1=NCCCN=C(C)C(C)=NCCCN=C1C.[Br][Co][Br]
inactive: [7] 100 % of control | dose: 50.0 mg/kg/injection, schedule: Q01DX009 (ip), vehicle: Klucel (hydroxypropylcellulose) (HPC) 96 % of control | [3] 95 % of control | [4] 106 % of control | [5] 110 % of control | [6] 90 % of control

CC[N+](C)(CC)c1ccc(/C=N\N(C)C)cc1
inactive: [8] 96 % of control | dose: 12.5 mg/kg/injection, schedule: Q01DX009 (ip), vehicle: Klucel (hydroxypropylcellulose) (HPC) 108 % of control | [7] 86 % of control

CC1(C)CCC(=O)C=C1c1c[nH]c2ccccc12
inactive: dose: 100.0 mg/kg/injection, schedule: Q01DX001 (ip), vehicle: other 88 % of control | dose: 200.0 mg/kg/injection, schedule: Q01DX001 (ip), vehicle: other 88 % of control | dose: 400.0 mg/kg/injection, schedule: Q01DX001 (ip), vehicle: other 97 % of control

O=C(O)CC1(C(=O)O)CC2(Cl)C(Cl)=C(Cl)C1(Cl)C2(Cl)Cl (stereo not given)
inactive: [1] 107 % of control | [2] 112 % of control

Oc1ccccc1C=NCC[N-]CCN=Cc1ccccc1O.[Cu+]
inactive: dose: 1.56 mg/kg/injection, schedule: Q01DX009 (ip), vehicle: Klucel (hydroxypropylcellulose) (HPC) 91 % of control | dose: 1.56 mg/kg/injection, schedule: Q04DX003 (ip), vehicle: Klucel (hydroxypropylcellulose) (HPC) 95 % of control | dose: 3.13 mg/kg/injection, schedule: Q01DX009 (ip), vehicle: Klucel (hydroxypropylcellulose) (HPC) 94 % of control | dose: 3.13 mg/kg/injection, schedule: Q04DX003 (ip), vehicle: Klucel (hydroxypropylcellulose) (HPC) 93 % of control | [8] 94 % of control | dose: 6.25 mg/kg/injection, schedule: Q04DX003 (ip), vehicle: Klucel (hydroxypropylcellulose) (HPC) 97 % of control

CCCCCCC(=O)/C=C/c1ccccc1Cl
inactive: dose: 100.0 mg/kg/injection, schedule: Q01DX009 (ip), vehicle: other 98 % of control | dose: 200.0 mg/kg/injection, schedule: Q01DX009 (ip), vehicle: other 92 % of control | dose: 400.0 mg/kg/injection, schedule: Q01DX009 (ip), vehicle: other 93 % of control

CCC(=O)C(c1ccccc1)(c1ccccc1)C(C)CN(C)C (stereo not given)
inactive: dose: 5.0 mg/kg/injection, schedule: Q01DX001 (ip), vehicle: saline 102 % of control | dose: 10.0 mg/kg/injection, schedule: Q01DX001 (ip), vehicle: saline 104 % of control | dose: 20.0 mg/kg/injection, schedule: Q01DX001 (ip), vehicle: saline 96 % of control | dose: 40.0 mg/kg/injection, schedule: Q01DX001 (ip), vehicle: saline 87 % of control

O=C(Nc1cc(NC(=O)Nc2cccc(C3=NCCN3)c2)cc(C(=O)O)c1)Nc1cccc(C2=NCCN2)c1
inactive: dose: 15.0 mg/kg/injection, schedule: Q01DX Z (ip), vehicle: carboxymethylcellulose (CMC) 96 % of control | dose: 30.0 mg/kg/injection, schedule: Q01DX Z (ip), vehicle: carboxymethylcellulose (CMC) 96 % of control | dose: 60.0 mg/kg/injection, schedule: Q01DX Z (ip), vehicle: carboxymethylcellulose (CMC) 94 % of control | dose: 120.0 mg/kg/injection, schedule: Q01DX Z (ip), vehicle: carboxymethylcellulose (CMC) 100 % of control and 106 % of control | dose: 240.0 mg/kg/injection, schedule: Q01DX Z (ip), vehicle: carboxymethylcellulose (CMC) 104 % of control

CC(=O)OC1=C2C(C)(CCC(OC(C)=O)C2(C)C)C2=C(C1=O)C1(C)CCC(C(C)CCCC(C)C)C1(C)CC2=O (stereo not given)
inactive: [1] 87 % of control | [2] 87 % of control

NC1(N)Sc2nc3ccccc3nc2S1
inactive: dose: 100.0 mg/kg/injection, schedule: Q04DX002 (ip), vehicle: saline with Tween-80 101 % of control

c1ccc(N2CCNCC2)nc1
inactive: dose: 5.0 mg/kg/injection, schedule: Q01DX009 (ip), vehicle: acetone 100 % of control | dose: 10.0 mg/kg/injection, schedule: Q01DX001 (ip), vehicle: acetone 96 % of control | dose: 10.0 mg/kg/injection, schedule: Q01DX009 (ip), vehicle: acetone 97 % of control | dose: 10.0 mg/kg/injection, schedule: Q04DX003 (ip), vehicle: saline 109 % of control | dose: 20.0 mg/kg/injection, schedule: Q01DX001 (ip), vehicle: acetone 95 % of control | dose: 20.0 mg/kg/injection, schedule: Q01DX009 (ip), vehicle: acetone 95 % of control | dose: 20.0 mg/kg/injection, schedule: Q04DX003 (ip), vehicle: saline 98 % of control | dose: 40.0 mg/kg/injection, schedule: Q01DX001 (ip), vehicle: acetone 106 % of control | dose: 40.0 mg/kg/injection, schedule: Q04DX003 (ip), vehicle: saline 101 % of control

CC(=O)C(=O)O
inactive: dose: 100.0 mg/kg/injection, schedule: Q01DX001 (ip), vehicle: saline 110 % of control | dose: 200.0 mg/kg/injection, schedule: Q01DX001 (ip), vehicle: saline 95 % of control | dose: 400.0 mg/kg/injection, schedule: Q01DX001 (ip), vehicle: saline 87 % of control
